Measurements: patent US20240360126A1, “PYRAZOLO[3,4-B]PYRIDINE COMPOUNDS FOR THE TREATMENT OF AUTOIMMUNE DISEASE” (Hoffmann-La Roche Inc., priority 2021, published 2024)

What was measured:
TLR9 = target: T1, TLR9 (Homo sapiens, UniProt Q9NR96); experiment: HEK293-Blue-hTLR-9 cells assay; format: cell-based; design: host or cells: HEK293 (HEK-Blue hTLR9); details: HEK293-Blue-hTLR9 cells, ODN2006 stimulation, 20 hrs; read-out: HEK/hTLR9 IC50
T1 sequence (Q9NR96 26-1032): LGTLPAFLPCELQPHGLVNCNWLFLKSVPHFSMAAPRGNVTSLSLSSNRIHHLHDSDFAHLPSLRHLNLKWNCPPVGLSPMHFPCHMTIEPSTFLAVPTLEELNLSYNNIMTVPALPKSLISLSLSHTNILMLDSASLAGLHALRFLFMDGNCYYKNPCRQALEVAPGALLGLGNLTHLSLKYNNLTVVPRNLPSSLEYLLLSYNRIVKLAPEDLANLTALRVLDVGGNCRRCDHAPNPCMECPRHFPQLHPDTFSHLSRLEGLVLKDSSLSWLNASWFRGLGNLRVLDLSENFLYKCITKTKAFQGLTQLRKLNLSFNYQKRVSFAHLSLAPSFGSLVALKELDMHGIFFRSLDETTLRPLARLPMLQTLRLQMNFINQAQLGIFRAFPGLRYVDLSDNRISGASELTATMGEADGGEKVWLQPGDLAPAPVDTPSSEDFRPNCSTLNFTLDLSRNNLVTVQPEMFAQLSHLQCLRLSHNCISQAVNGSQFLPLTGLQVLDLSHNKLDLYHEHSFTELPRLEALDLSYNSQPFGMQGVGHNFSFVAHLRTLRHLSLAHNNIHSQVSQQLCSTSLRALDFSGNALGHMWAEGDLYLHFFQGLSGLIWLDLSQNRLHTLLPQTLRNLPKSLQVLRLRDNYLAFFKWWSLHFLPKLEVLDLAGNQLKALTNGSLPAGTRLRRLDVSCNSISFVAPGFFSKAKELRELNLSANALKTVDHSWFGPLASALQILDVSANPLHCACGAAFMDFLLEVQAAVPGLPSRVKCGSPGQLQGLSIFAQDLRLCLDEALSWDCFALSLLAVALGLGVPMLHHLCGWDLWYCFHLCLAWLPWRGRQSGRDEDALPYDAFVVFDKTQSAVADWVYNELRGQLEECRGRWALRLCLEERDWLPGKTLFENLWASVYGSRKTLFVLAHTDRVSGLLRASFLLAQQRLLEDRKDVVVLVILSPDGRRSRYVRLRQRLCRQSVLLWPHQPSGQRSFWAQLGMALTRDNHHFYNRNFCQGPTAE
From the text: A stable HEK293-Blue-hTLR-9 cell line was purchased from InvivoGen (Cat. #: hkb-htlr9, San Diego, California, USA). These cells were originally designed for studying the stimulation of human TLR9 by monitoring the activation of NF-κB. A SEAP (secreted embryonic alkaline phosphatase) reporter gene was placed under the control of the IFN-β minimal promoter fused to five NF-κB and AP-1-binding sites. The SEAP was induced by activating NF-κB and AP-1 via stimulating HEK-Blue hTLR9 cells with TLR9 ligands. Therefore the reporter expression was declined by TLR9 antagonist under the stimulation of a ligand, such as ODN2006 (Cat. #: tlrl-2006-1, Invivogen, San Diego, California, USA), for incubation of 20 hrs. The cell culture supernatant SEAP reporter activity was determined using QiANTI-Blue™ kit (Cat. #: rep-qbl, Invivogen, San Diego, California, USA) at a wavelength of 640 nm, a detection medium that turns purple or blue in the presence of alkaline phosphatase.
HEK293-Blue-hTLR9 cells were incubated at a density of 250,000-450,000 cells/mL in a volume of 170 μL in a 96-well plate in Dulbecco's Modified Eagle's medium (DMEM) containing 4.5 g/L glucose, 50 U/mL penicillin, […], […], 10% (v/v) heat-inactivated fetal bovine serum with addition of 20 μL test compound in a serial dilution in the presence of final DMSO at 1% and 10 μL of 20 μM ODN2006 in above DMEM, perform incubation under 37° C. in a C02 incubator for 20 hrs. Then 20 μL of the supernatant from each well was incubated with 180 μl. Quanti-blue substrate solution at 37° C. for 2 h and the absorbance was read at 620˜655 nm using a spectrophotometer. The signaling pathway that TLR9 activation leads to downstream NF-κB activation has been widely accepted, and therefore similar reporter assay was modified for evaluating TLR9 antagonist.

[1] = Human microsome stability assay; format: in vitro ADME; details: 1 μM test compound, 0.5 mg/mL liver microsomal protein, 37° C.
Experimental: The human microsomal stability assay is used for early assessment of metabolic stability of a test compound in human liver microsomes.
Human liver microsomes (Cat. NO.: 452117, Corning, USA; Cat. NO.:H2610, Xenotech, USA) were preincubated with test compound for 10 minutes at 37° C. in 100 mM potassium phosphate buffer, pH 7.4. The reactions were initiated by adding NADPH regenerating system.
The final incubation mixtures contained 1 μM test compound, 0.5 mg/mL liver microsomal protein, 1 mM MgCl2, 1 mM NADP, 1 unit/mL isocitric dehydrogenase and 6 mM isocitric acid in 100 mM potassium phosphate buffer, pH 7.4. After incubation times of 0, 3, 6, 9, 15 and 30 minutes at 37° C., 300 μL of cold acetonitrile (including internal standard) was added to 100 μL incubation mixture to terminate the reaction. Following precipitation and centrifugation, the amount of compound remaining in the samples were determined by LC-MS/MS. Controls of no NADPH regenerating system at zero and 30 minutes were also prepared and analyzed.

Row | IC50 (TLR9) [nM] | Clearance of Human microsome [1] [mL/min/kg] | Compound
1 | 364 | 9.1 | Cc1cc(N2CCNCC2)cnc1C1CCN(c2ccnc3c2cnn3C)CC1 [Example 5, 1-methyl-4-[4-(3-methyl-5-piperazin-1-yl-2-pyridyl)-1-piperidyl]pyrazolo[3,4-b]pyridine]
2 | 208 | 9.3 | Cc1cc(N2CCNCC2)ncc1C1CCN(c2ccnc3c2cnn3C)CC1 [Example 6, 1-methyl-4-[4-(4-methyl-6-piperazin-1-yl-3-pyridyl)-1-piperidyl]pyrazolo[3,4-b]pyridine]
3 | 52 | 6.2 | Cc1cc(N2CCC(c3ncc(N4CCNCC4)cc3C)CC2)c2cnn(C)c2n1 [Example 7, 1,6-dimethyl-4-[4-(3-methyl-5-piperazin-1-yl-2-pyridyl)-1-piperidyl]pyrazolo[3,4-b]pyridine]
4 | 168 | 7.2 | CCc1cc(N2CCNCC2)cnc1C1CCN(c2cc(C)nc3c2cnn3C)CC1 [Example 13, 4-[4-(3-ethyl-5-piperazin-1-yl-2-pyridyl)-1-piperidyl]-1,6-dimethyl-pyrazolo[3,4-b]pyridine]
5 | 225 | 6.7 | COc1cc(N2CCNCC2)cnc1C1CCN(c2cc(C)nc3c2cnn3C)CC1 [Example 14, 4-[4-(3-methoxy-5-piperazin-1-yl-2-pyridyl)-1-piperidyl]-1,6-dimethyl-pyrazolo[3,4-b]pyridine]
6 | 184 | 9.1 | Cc1cc(N2CC[C@@H](c3ncc(N4CC5(CNCCO5)C4)cc3C)[C@H](C)C2)c2cnn(C)c2n1 [Example 27, 2-[6-[(3S,4R)-1-(1,6-dimethylpyrazolo[3,4-b]pyridin-4-yl)-3-methyl-4-piperidyl]-5-methyl-3-pyridyl]-5-oxa-2,8-diazaspiro[3.5]nonane]
7 | 126 | 6.2 | Cc1cc(N2CC[C@@H](c3ncc(N4CCOC[C@@H](N)C4)cc3C)[C@H](C)C2)c2cnn(C)c2n1 [Example 28, (6S)-4-[6-[(3S,4R)-1-(1,6-dimethylpyrazolo[3,4-b]pyridin-4-yl)-3-methyl-4-piperidyl]-5-methyl-3-pyridyl]-1,4-oxazepan-6-amine]
8 | 238 | 6.8 | COC[C@H]1CN(c2cnc([C@@H]3CCN(c4cc(C)nc5c4cnn5C)C[C@H]3C)c(C)c2)CCN1 [Example 29, 4-[(3S,4R)-4-[5-[(3R)-3-(methoxymethyl)piperazin-1-yl]-3-methyl-2-pyridyl]-3-methyl-1-piperidyl]-1,6-dimethyl-pyrazolo[3,4-b]pyridine]
9 | 186 | 8.8 | Cc1cc(N2CC[C@@H](c3ncc(N4CC(C)(N)C4)cc3C)[C@H](C)C2)c2cnn(C)c2n1 [Example 32, 1-[6-[(3S,4R)-1-(1,6-dimethylpyrazolo[3,4-b]pyridin-4-yl)-3-methyl-4-piperidyl]-5-methyl-3-pyridyl]-3-methyl-azetidin-3-amine]
10 | 79 | 6.2 | Cc1cc(N2CC[C@@H](c3ncc(N4C[C@H]5NCCO[C@@H]5C4)cc3C)[C@H](C)C2)c2cnn(C)c2n1 [Example 33, (4aR,7aR)-6-[6-[(3S,4R)-1-(1,6-dimethylpyrazolo[3,4-b]pyridin-4-yl)-3-methyl-4-piperidyl]-5-methyl-3-pyridyl]-3,4,4a,5,7,7a-hexahydro-2H-pyrrolo[3,4-b][1,4]oxazine]
11 | 165 | 9.8 | Cc1cc(N2CC[C@@H](c3ccc(N4CCNCC4)cn3)[C@H](C)C2)c2cnn(C)c2n1 [Example 34, 1,6-dimethyl-4-[(3S,4R)-3-methyl-4-(5-piperazin-1-yl-2-pyridyl)-1-piperidyl]pyrazolo[3,4-b]pyridine]
